Measured values as given in patent publication US20110098325A1, “PYRIDINE BENZAMIDES AND PYRAZINE BENZAMIDES USED AS PKD INHIBITORS” (CANCER RESEARCH TECHNOLOGY LIMITED, priority 2006, published 2011).
Values joined by “and” are separate entries in the source; they are usually repeats but may differ in a detail not shown here. Equal values may be shown once.

Target: T1, Murine PKD1 kinase domain (Mus musculus, UniProt Q62101)
T1 construct: hexahistidine (pFastBac HTb leader) (N); made in house; host or cells: Sf9 insect cells, baculovirus (Bac-to-Bac HT, pFastBac HTb)
T1 sequence (Q62101 with tags, fused parts or gaps R683W): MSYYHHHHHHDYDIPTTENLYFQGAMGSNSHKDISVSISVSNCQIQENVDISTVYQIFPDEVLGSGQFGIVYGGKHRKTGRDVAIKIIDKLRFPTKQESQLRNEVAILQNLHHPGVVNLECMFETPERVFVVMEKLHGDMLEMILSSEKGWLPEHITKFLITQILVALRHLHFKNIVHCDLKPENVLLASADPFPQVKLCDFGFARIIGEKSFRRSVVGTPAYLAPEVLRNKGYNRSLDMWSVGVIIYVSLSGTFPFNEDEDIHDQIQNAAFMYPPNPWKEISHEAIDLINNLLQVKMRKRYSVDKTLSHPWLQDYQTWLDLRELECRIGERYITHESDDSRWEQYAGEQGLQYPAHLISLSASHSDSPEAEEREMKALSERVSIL
Experiment: PKD1 (Murine Kinase Domain) Enzyme Activity Assay (IMAP fluorescence polarisation)
Type: biochemical
Conditions: 10 μM ATP, 60 minutes, room temperature

Row | IC50 | Structure (SMILES)
1 | < 1000 nM | COc1cc(-c2cncc(-c3cccc(C(=O)NCCN(C)C)c3)n2)ccc1O [X-007, N-(2-Dimethylamino-ethyl)-3-[6-(4-hydroxy-3-methoxy-phenyl)-pyrazin-2-yl]-benzamide]
2 | < 1000 nM and 12 nM | COc1cc(-c2nc(-c3cccc(C(=O)NCCN(C)C)c3)cnc2N)ccc1O [X-017, 3-[5-Amino-6-(4-hydroxy-3-methoxy-phenyl)-pyrazin-2-yl]-N-(2-dimethylamino-ethyl)-benzamide]
3 | < 1000 nM and 8.5 nM | COc1cc(-c2cc(-c3cccc(C(=O)NCCN(C)C)c3)cnc2N)ccc1O [Y-059, 3-[6-Amino-5-(4-hydroxy-3-methoxy-phenyl)-pyridin-3-yl]-N-(2-dimethylamino-ethyl)-benzamide]
